Assay results as given in EP1657232A1, “Use of S-enantiomers of alpha-sustituted aryl acetic acids for the prevention of Alzheimer's disease” (CELLZOME AG, priority 2004, dated 2006).

Molecular target: T1, cyclooxygenase-1 (Cox-1) (Ovis aries, UniProt P05979)
T1 construct: purchased Cayman Chemical Company 760111
T1 sequence (P05979 25-600): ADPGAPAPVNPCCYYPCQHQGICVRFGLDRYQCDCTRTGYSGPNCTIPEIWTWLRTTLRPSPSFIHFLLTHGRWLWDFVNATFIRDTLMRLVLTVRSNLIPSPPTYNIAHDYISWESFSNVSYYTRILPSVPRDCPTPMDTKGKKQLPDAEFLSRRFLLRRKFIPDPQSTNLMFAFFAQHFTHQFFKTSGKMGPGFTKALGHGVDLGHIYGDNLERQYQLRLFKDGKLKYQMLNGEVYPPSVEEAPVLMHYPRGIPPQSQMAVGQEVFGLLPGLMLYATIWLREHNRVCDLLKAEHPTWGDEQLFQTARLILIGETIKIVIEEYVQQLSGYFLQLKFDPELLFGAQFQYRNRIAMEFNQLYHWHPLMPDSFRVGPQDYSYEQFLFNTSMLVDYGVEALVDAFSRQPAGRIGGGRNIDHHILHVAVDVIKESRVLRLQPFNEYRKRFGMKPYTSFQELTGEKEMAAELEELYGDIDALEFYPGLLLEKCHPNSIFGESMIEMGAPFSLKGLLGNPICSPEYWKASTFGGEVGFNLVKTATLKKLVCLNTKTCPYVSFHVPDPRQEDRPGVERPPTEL
Assay: Colorimetric Cox inhibitor screening assay (Cayman Chemical, Cat. No. 760111)
Assay type: biochemical
Procedure: Inhibition of Cox-1 is determined using the Colorimetric Cox inhibitor screening assay provided by Cayman Chemical Company, Ann Arbor, MI, USA. (Cat. No. 760111) according to manufacturer's instructions.

CC(C)[C@H](C(=O)O)c1ccc(-c2cccc(C(F)(F)F)c2)cc1 [title compound of example 1, 2(S)-(3'-trifluoromethyl-biphenyl-4-yl)-3-methyl-butanoic acid]
inhibitory effect against Cox-1 activity: no inhibitory effect
